Experiments:
Type in all cases: in vivo
[1] = test system: yellow fever mosquito (Aedes aegypti); test: whole plant or invertebrate; conditions: 48 h, larval mortality visually assessed after 2 days, read-out: mortality in comparison with untreated controls
How it was run: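 Freshly hatched larvae (5-15 per well) held in 200 μl tap water; compounds formulated in 25% DMSO/water and 2.5 μl sprayed at several concentrations, two replicates. Plates kept 2 days at 28 °C, 80% RH, then larval mortality scored visually.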

[2] = test system: Orchid Thrips (Dichromothrips corbetti); test: Action on orchid thrips, floral-immersion technique; conditions: adult thrips, 72 hours after treatment, read-out: mortality in comparison with untreated controls
How it was run: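 Lab-colony adult thrips, about 20 per arena, were exposed to whole orchid flower petals dipped in compound diluted in 1:1 acetone:water with 0.01% v/v Kinetic HV and then dried. Arenas were held under continuous light at about 28 °C. Live thrips were counted after 3 days and percent mortality recorded at 72 h post-treatment.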

[3] = test system: boll weevil (Anthonomus grandis); test: Action on boll weevil, eggs on insect diet in 96-well microtiter plates; conditions: 120 h, 800 ppm, egg and larval mortality visually assessed after 5 days, read-out: mortality in comparison with untreated controls
How it was run: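 Diet in 96-well plates was infested with 5-10 A. grandis eggs and sprayed with compounds formulated in 75% water/25% DMSO, at several concentrations, in two replicates. Plates were held 5 days at about 25±1 °C and 75±5% RH. Egg and larval mortality was then scored visually.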

[4] = test system: Silverleaf Whitefly (Bemisia argentifolii) (Adults); test: Action on silverleaf whitefly adults, sprayed cotton plants; conditions: 72 h, 3 days after treatment, read-out: mortality in comparison with untreated controls
How it was run: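 Compounds diluted from cyclohexanone stocks into 50% acetone/water with 0.01% nonionic surfactant and electrostatically sprayed onto cotyledon-stage cotton. Dried plants were infested with 10–12 adults (3–5 days old), held ~25 °C, 20–40% RH for 3 days; mortality scored at day 3 vs untreated plants.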

[5] = test system: Mediterranean fruitfly (Ceratitis capitata); test: Action on Mediterranean fruitfly, eggs on insect diet in microtiter plates; conditions: 120 h, egg and larval mortality visually assessed after 5 days, read-out: mortality in comparison with untreated controls
How it was run: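 Microtiter plates held insect diet plus 50-80 C. capitata eggs; compounds in 75% water/25% DMSO were sprayed onto the diet at several concentrations, two replicates. Plates were kept at about […] and […] relative humidity for 5 days, then egg and larval mortality was scored visually.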

[6] = test system: vetch aphid (Megoura viciae); test: Action on vetch aphid, broad bean leaf disks in 24-well microtiter plates; conditions: foliar, 120 h, adult aphids on treated leaf disks, 5 days, read-out: mortality in comparison with untreated controls
Protocol: Example B7: Action on Vetch Aphid (Megoura viciae)
For evaluating control of vetch aphid (Megoura viciae) through contact or systemic means the test unit consisted of 24-well-microtiter plates containing broad bean leaf disks.
The compounds were formulated using a solution containing 75% v/v water and 25% v/v DMSO. Different concentrations of formulated compounds were sprayed onto the leaf disks at 2.5 μl, using a custom built micro atomizer, at two replications.
After application, the leaf disks were air-dried and 5-8 adult aphids placed on the leaf disks inside the microtiter plate wells. The aphids were then allowed to suck on the treated leaf disks and incubated at about 23±1° C. and about 50±5% relative humidity for 5 days. Aphid mortality and fecundity was then visually assessed.

[7] = test system: green peach aphid (Myzus persicae) (mixed life stages); test: Action on green peach aphid, liquid artificial diet under artificial membrane; conditions: 72 h, 800 ppm, adult aphids on treated aphid diet, 3 days, read-out: mortality in comparison with untreated controls
Source text: Example B8: Action on Green Peach Aphid (Myzus persicae) (Mixed Life Stages)
For evaluating control of green peach aphid (Myzus persicae) through systemic means the test unit consisted of 96-well-microtiter plates containing liquid artificial diet under an artificial membrane.
The compounds were formulated using a solution containing 75% v/v water and 25% v/v DMSO. Different concentrations of formulated compounds were pipetted into the aphid diet, using a custom built pipetter, at two replications.
After application, 5-8 adult aphids were placed on the artificial membrane inside the microtiter plate wells. The aphids were then allowed to suck on the treated aphid diet and incubated at about 23±1° C. and about 50±5% relative humidity for 3 days. Aphid mortality and fecundity was then visually assessed.

[8] = test system: Diamond Back Moth (Plutella xylostella); test: Action on diamond back moth, dipped cabbage leaves; conditions: 3rd instar larvae, 72 hours after treatment, read-out: mortality in comparison with untreated controls
How it was run: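 Cabbage leaves dipped in compound in 1:1 water:acetone with 0.01% (vol/vol) surfactant, air-dried, placed on moist filter paper and infested with ten 3rd-instar larvae. Mortality scored 72 hours after treatment; feeding damage rated on a 0-100% scale.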

Cc1ccc(C(C)C)c(N2C(=O)CS/C2=N\N=C\c2ccc3c(ccc4c3ncn4-c3ccc(OC(F)(F)F)cc3)n2)c1 [Compound C-6, (2Z)-3-(2-isopropyl-5-methyl-phenyl)-2-[(E)-[3-[4-(trifluoromethoxy)phenyl]imidazo[4,5-f]quinolin-7-yl]methylenehydrazono]thiazolidin-4-one]
≥ 75%: mortality at 800 ppm [1] | mortality at 500 ppm [2] | mortality at 800 ppm [3] | mortality at 500 ppm [4] | mortality at 800 ppm [5] | mortality at 800 ppm [6] | mortality at 800 ppm [7] | mortality at 500 ppm [8]

From patent publication US10106558B2, “Azolobenzazine compounds, compositions comprising these compounds and their use for controlling invertebrate pests” (BASF SE, priority 2015, dated 2018)
